Measurements published in patent publication US20070004686A1, “Attractant for apple fruit moth and other insect pests of apple” (priority 2002, published 2007).
“Also recorded” adds a separate entry of the source.

What was measured:
Format in all cases: in vivo
[1] = test system: codling moth Cydia pomonella; assay: Field trap attraction of codling moth; conditions: traps baited with 10 mg
Method: (§1) The compounds eliciting a strong response from antennae of female apple fruit moth and codling moth were then all tested in field traps for attraction of insects. Compounds were applied at a standard dose of 10 mg on red rubber septa, the septa were mounted in Tetra traps with sticky bottoms (Arm et al. 1979).
In a wind tunnel experiment, a blend of farnesol and (E)-beta-farnesene released at 10 ng/min attracted within 2 min 35% of the males tested to the source (N=60).

[2] = test system: apple fruit moth Argyresthia conjugella; assay: Field trap attraction of apple fruit moth; conditions: for attraction of apple fruit moth females and males to field traps compared with blank: single compounds, 10 mg on red rubber septa in Tetra traps with sticky bottoms; for relative attractiveness for apple fruit moth among compounds and blends tested: field traps, 10 mg on red rubber septa, males and females
Method: as §1
Furthermore, 2-phenyl ethanol was tested in a series of 2-component blends, including all compounds which had shown some attractiveness by themselves.
(§2) Its attractivity can be augmented by blending it with anethole. […] Both sexes of Argyresthia conjugella were attracted. Attraction of females is of importance for monitoring the migration of mated females into orchards. Attraction of females enables population control by mass-trapping, by an attracticide formulation, or by disruption of mating and oviposition behaviour.

other insects = assay: Field trapping experiment, species specificity (other insects); conditions: conditions tested (region, time of season)
Method: as §1, §2
Attraction of Argyresthia conjugella to 2-phenyl ethanol has not been reported, and the blend of 2-phenyl ethanol and anethole has not been described to be attractive for any other species.

## COc1ccc(C=O)cc1 [p-anisaldehyde, P-Anisaldehyde]
[1]
  attraction of codling moth males to baited traps: attracted in significant numbers
[2]
  attraction of apple fruit moth females and males to field traps compared with blank: numbers significantly different from blank

## CC/C=C\CC1=C(C)CCC1=O [cis-jasmone]
[1]
  attraction of codling moth males to baited traps: attracted in significant numbers

## CC(C)=CCCC(C)=CCCC(C)=CCO [farnesol, Farnesol]
[1]
  attraction of codling moth males to baited traps: attracted in significant numbers

## CC/C=C\CCOC(=O)C(C)CC (stereo not drawn) [(Z)3-hexenyl 2-methylbutanoate]
[1]
  attraction of codling moth males to baited traps: attracted in significant numbers

## C=CC(C)(O)CCC=C(C)C (stereo not drawn) [linalool, Linalool]
[2]
  attraction of apple fruit moth females and males to field traps compared with blank: numbers significantly different from blank

## OCCc1ccccc1 [2-phenyl ethanol, 2-Phenyl ethanol]
Other insects
  attraction of insects other than Argyresthia conjugella (species specificity): no other insects were attracted in significant numbers
[2]
  relative attractiveness for apple fruit moth among compounds and blends tested: single most attractive compound
  attraction of apple fruit moth females and males to field traps compared with blank: numbers significantly different from blank; also recorded: attractant for both males and females

## CC=Cc1ccc(OC)cc1 [anethole, Anethole]
[1]
  attraction of codling moth males to baited traps: attracted in significant numbers
[2]; listed as Anethole
  relative attractiveness for apple fruit moth among compounds and blends tested: only a weak attractant
[2]
  attraction of apple fruit moth females and males to field traps compared with blank: numbers significantly different from blank
